{"source": "patent US20250230193A1", "about": "“CYCLIC COMPOUND HAVING SELECTIVE KRAS INHIBITORY EFFECT ON HRAS AND NRAS” (CHUGAI SEIYAKU KABUSHIKI KAISHA, priority 2022, published 2025)", "key": {"[1]": {"molecular_target": "GDP-bound NRAS wild-type protein (Homo sapiens, UniProt P01111)", "sequence (P01111 whole entry)": "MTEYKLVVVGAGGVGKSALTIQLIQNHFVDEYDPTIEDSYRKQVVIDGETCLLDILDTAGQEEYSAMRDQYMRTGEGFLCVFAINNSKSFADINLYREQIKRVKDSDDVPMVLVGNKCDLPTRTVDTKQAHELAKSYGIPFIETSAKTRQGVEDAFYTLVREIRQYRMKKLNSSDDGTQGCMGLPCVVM", "assay": "Binding to NRAS by surface plasmon resonance (SPR), Single Cycle Kinetics", "conditions": "KD ratio NRAS/KRAS, SPR"}, "[2]": {"molecular_target": "GDP-bound HRAS wild-type protein (Homo sapiens, UniProt P01112)", "sequence (P01112 whole entry)": "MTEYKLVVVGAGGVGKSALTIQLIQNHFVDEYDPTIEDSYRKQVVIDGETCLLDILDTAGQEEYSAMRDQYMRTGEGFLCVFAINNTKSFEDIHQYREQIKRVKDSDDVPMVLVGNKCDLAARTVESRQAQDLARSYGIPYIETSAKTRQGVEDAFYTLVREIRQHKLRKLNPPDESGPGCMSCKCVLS", "assay": "Binding to HRAS by surface plasmon resonance (SPR), Single Cycle Kinetics", "conditions": "KD ratio HRAS/KRAS, SPR"}}}
{"smiles": "CCO[C@@H]1C[C@H]2C(=O)NC3(CCC3)C(=O)N(C)[C@@H](C3CCCC3)C(=O)N(C)[C@H](C(=O)N(C)C)CC(=O)N(C)[C@@H](CC3CCCCC3)C(=O)N[C@@H]([C@@H](C)CC)C(=O)N(C)CC(=O)N(C)[C@H]3CCCCN(C3=O)[C@@H](Cc3ccc(C(F)(F)F)cc3)C(=O)N(C)CC(=O)N[C@@H](CCc3cc(F)c(C(F)(F)F)c(F)c3)C(=O)N2C1", "note": "[PP0701]", "values": [{"measurement": "NRAS/KRAS (ratio of KD value with respect to GDP-bound NRAS wild-type protein to KD value with respect to KRAS)", "setting": "[1]", "value": "C (A compound having a KD ratio of 0.1 or more and less than 3 is denoted as C)"}, {"measurement": "HRAS/KRAS (ratio of KD value with respect to GDP-bound HRAS wild-type protein to KD value with respect to KRAS)", "setting": "[2]", "value": "B (a compound having 3 or more and less than 10 is denoted as B)"}]}
{"smiles": "CCO[C@@H]1C[C@H]2C(=O)NC3(CCC3)C(=O)N(C)[C@@H](C3CCCC3)C(=O)N(C)[C@H](C(=O)N(C)C)CC(=O)N(C)[C@@H](Cc3cccnc3)C(=O)N[C@@H]([C@@H](C)CC)C(=O)N(C)CC(=O)N(C)[C@H]3CCCCN(C3=O)[C@@H](Cc3ccc(C(F)(F)F)cc3)C(=O)N(C)CC(=O)N[C@@H](CCc3cc(F)c(C(F)(F)F)c(F)c3)C(=O)N2C1", "note": "[PP0703]", "values": [{"measurement": "NRAS/KRAS (ratio of KD value with respect to GDP-bound NRAS wild-type protein to KD value with respect to KRAS)", "setting": "[1]", "value": "C (A compound having a KD ratio of 0.1 or more and less than 3 is denoted as C)"}, {"measurement": "HRAS/KRAS (ratio of KD value with respect to GDP-bound HRAS wild-type protein to KD value with respect to KRAS)", "setting": "[2]", "value": "B (a compound having 3 or more and less than 10 is denoted as B)"}]}
{"smiles": "CCO[C@@H]1C[C@H]2C(=O)NC3(CCC3)C(=O)N(C)[C@@H](C3CCCC3)C(=O)N(C)[C@H](C(=O)N(C)C)CC(=O)N(C)[C@@H](COC)C(=O)N[C@@H]([C@@H](C)CC)C(=O)N(C)CC(=O)N(C)[C@H]3CCCCN(C3=O)[C@@H](Cc3ccc(C(F)(F)F)cc3)C(=O)N(C)CC(=O)N[C@@H](CCc3cc(F)c(C(F)(F)F)c(F)c3)C(=O)N2C1", "note": "[PP0704]", "values": [{"measurement": "NRAS/KRAS (ratio of KD value with respect to GDP-bound NRAS wild-type protein to KD value with respect to KRAS)", "setting": "[1]", "value": "C (A compound having a KD ratio of 0.1 or more and less than 3 is denoted as C)"}, {"measurement": "HRAS/KRAS (ratio of KD value with respect to GDP-bound HRAS wild-type protein to KD value with respect to KRAS)", "setting": "[2]", "value": "C (A compound having a KD ratio of 0.1 or more and less than 3 is denoted as C)"}]}
{"smiles": "CCO[C@@H]1C[C@H]2C(=O)NC3(CCC3)C(=O)N(C)[C@@H](C3CCCC3)C(=O)N(C)[C@H](C(=O)N(C)C)CC(=O)N(C)[C@@H](CCOC)C(=O)N[C@@H]([C@@H](C)CC)C(=O)N(C)CC(=O)N(C)[C@H]3CCCCN(C3=O)[C@@H](Cc3ccc(C(F)(F)F)cc3)C(=O)N(C)CC(=O)N[C@@H](CCc3cc(F)c(C(F)(F)F)c(F)c3)C(=O)N2C1", "note": "[PP0705]", "values": [{"measurement": "NRAS/KRAS (ratio of KD value with respect to GDP-bound NRAS wild-type protein to KD value with respect to KRAS)", "setting": "[1]", "value": "C (A compound having a KD ratio of 0.1 or more and less than 3 is denoted as C)"}, {"measurement": "HRAS/KRAS (ratio of KD value with respect to GDP-bound HRAS wild-type protein to KD value with respect to KRAS)", "setting": "[2]", "value": "C (A compound having a KD ratio of 0.1 or more and less than 3 is denoted as C)"}]}
{"smiles": "CCO[C@@H]1C[C@H]2C(=O)NC3(CCC3)C(=O)N(C)[C@@H](C3CCCC3)C(=O)N(C)[C@H](C(=O)N(C)C)CC(=O)N(C)C[C@@H](C)C(=O)N[C@@H]([C@@H](C)CC)C(=O)N(C)CC(=O)N(C)[C@H]3CCCCN(C3=O)[C@@H](Cc3ccc(C(F)(F)F)cc3)C(=O)N(C)CC(=O)N[C@@H](CCc3cc(F)c(C(F)(F)F)c(F)c3)C(=O)N2C1", "note": "[PP0706]", "values": [{"measurement": "NRAS/KRAS (ratio of KD value with respect to GDP-bound NRAS wild-type protein to KD value with respect to KRAS)", "setting": "[1]", "value": "B (a compound having 3 or more and less than 10 is denoted as B)"}, {"measurement": "HRAS/KRAS (ratio of KD value with respect to GDP-bound HRAS wild-type protein to KD value with respect to KRAS)", "setting": "[2]", "value": "B (a compound having 3 or more and less than 10 is denoted as B)"}]}
{"smiles": "CCO[C@@H]1C[C@H]2C(=O)NC3(CCC3)C(=O)N(C)[C@@H](C3CCCC3)C(=O)N(C)[C@H](C(=O)N3CCOCC3)CC(=O)N(C)[C@@H](CC)C(=O)N[C@@H]([C@@H](C)CC)C(=O)N(C)CC(=O)N(C)[C@H]3CCCCN(C3=O)[C@@H](Cc3ccc(C(F)(F)F)cc3)C(=O)N(C)CC(=O)N[C@@H](CCc3cc(F)c(C(F)(F)F)c(F)c3)C(=O)N2C1", "note": "[PP0708]", "values": [{"measurement": "NRAS/KRAS (ratio of KD value with respect to GDP-bound NRAS wild-type protein to KD value with respect to KRAS)", "setting": "[1]", "value": "B (a compound having 3 or more and less than 10 is denoted as B)"}, {"measurement": "HRAS/KRAS (ratio of KD value with respect to GDP-bound HRAS wild-type protein to KD value with respect to KRAS)", "setting": "[2]", "value": "B (a compound having 3 or more and less than 10 is denoted as B)"}]}
